In article PMC10707724, “Dual Effects of 3-epi-betulin from Daphniphyllum glaucescens in Suppressing SARS-CoV-2-Induced Inflammation and Inhibiting Virus Entry” (International Journal of Molecular Sciences, 2023):
pEC50: −log10 of the molar value.

Key:
Assay type in all cases: cell-based
SARS-CoV-2 SEMpv (N501Y) = conditions: read-out: EC50, pseudovirus entry
[1] = tested on: SARS-CoV-2 Omicron (BA.1); test: microbe, parasite or virus in culture; conditions: Omicron (BA.1), compared with the other variants
SARS-CoV-2 SEMpv (D614G) = conditions: read-out: EC50, pseudovirus entry

How did the pEC50 (SARS-CoV-2 SEMpv (N501Y)) turn out when `C=C(C)[C@@H]1CC[C@]2(CO)CC[C@]3(C)[C@H](CC[C@@H]4[C@@]5(C)CC[C@@H](O)C(C)(C)[C@@H]5CC[C@]43C)[C@@H]12` [Compound 5, 3-epi-Betulin] was run?
The pEC50 was 4.88.

What about the “inhibition activity against variant, in words” value [1] of the same molecule?
Its value is “did not perform as well”.

And the pEC50 (SARS-CoV-2 SEMpv (D614G))?
The pEC50 was 4.90.
